Results on one compound are retold here after ChEMBL document CHEMBL5247625, “Discovery and characterization of novel potent BCR-ABL degraders by conjugating allosteric inhibitor” (Eur J Med Chem, 2022).

The test system of the experiment is Protein cereblon/Tyrosine-protein kinase ABL1/Breakpoint cluster region protein (Mus musculus), P00519+P11274+Q8C7D2 [V468F]. Description: Protac activity at CRBN/BCR-ABL V468F mutant in mouse 32D cells assessed as increase in BCR-ABL degradation at 1 to 1000 nM by Western blotting analysis. As to conditions: dose 1-1000 nM. The class given is cell-based.

Active and inactive are the calls of the source. The calls are words filed in the database; no cut-off is given here.

Consider `O=C1CCC(N2Cc3c(SCCCCCCN4CCN(C5CCN(c6ncc(C(=O)Nc7ccc(OC(F)(F)Cl)cc7)cc6-c6ccn[nH]6)CC5)CC4)cccc3C2=O)C(=O)N1` (stereo unspecified), for which the outcome was inactive.
